Test system: cultured hippocampal neurons

Row | Compound | frequency of spontaneous IPSCs [%] | amplitude of miniature PSCs [%] | frequency of miniature PSCs [%]
1 | CC(C)NCC(O)c1ccc(O)c(O)c1 (stereo not drawn) [isoproterenol, 4-[1-hydroxy-2-(1-methylethylamino)ethyl]benzene-1,2-diol] | 122±58 | – | –
2 | ω-agatoxin IVA | – | 90±7 | 27±7

Source: patent US20100311767A1 (priority 2007, published 2010)
